# According to patent publication US20240342068A1, “CYCLODEXTRIN-BASED ETHYL LAUROYL ARGINATE (LAE) CLATHRATE, AND PREPARATION METHOD AND USE THEREOF” (NANJING UNIVERSITY OF FINANCE & ECONOMICS, priority 2022, published 2024):
# What was measured:
# [1] = pH range; cited from earlier work
# [2] = pH stability by turbidity and particle size; format: physicochemical; conditions: aqueous solution containing 1% w/v LAE, pH 1 to 11, room temperature 24 h
# Protocol: (§1) The pH stability of a system was characterized by measuring turbidity and particle size. A 1% w/v LAE aqueous solution and an HPβCD/LAE clathrate aqueous solution (4% w/v) containing a same amount of 1% w/v LAE were prepared, respectively. The pH values of the LAE aqueous solution and the HPβCD/LAE clathrate aqueous solution were adjusted to 1, 3, 5, 7, 9, and 11 with 0.01 mol/L to 0.5 mol/L of sodium hydroxide and hydrochloric acid solutions, respectively. After allowing to stand at room temperature for 24 h, the absorbance at 600 nm of the LAE aqueous solutions and the HPβCD/LAE clathrate aqueous solutions with different pH values were measured with a UV spectrophotometer. The absorbance was used to represent a turbidity of the solution, while pure water was used as a reference. The particle size of the solution was measured with a ZS90 nanometer particle size analyzer. Photographs were taken to record the changes of the above solutions stored at 4° C. for 0 h, 24 h, 7 d, and 35 d to characterize the low-temperature storage stability of the samples.
# [3] = in water at room temperature; cited from earlier work
# Staphylococcus aureus = test: Antibacterial activity by Oxford cup method with xanthan gum as interfering substance; format: cell-based; conditions: 0.20% LAE, xanthan gum present, compared with no xanthan gum
# Protocol: In order to test the performance of the HPβCD LAE clathrate prepared in Example 1, the antibacterial activity of the HPβCD/LAE clathrate in the presence of an anionic polysaccharide (xanthan gum) as an interfering substance was measured by an Oxford cup method. Groups A to G were set up, and each group had 3 parallel experiments. 15 mL of nutrient agar was added to each petri dish, cooled and solidified, and 100 μL of a Staphylococcus aureus solution (10^5 CFU/mL) was spread on each petri dish. […] Each group was placed with an Oxford cup, and 130 μL of an antibacterial solution was added to each Oxford cup; each of the Oxford cups was diffused in a 4° C. refrigerator for 24 h, cultured at 37° C. for 24 h, and an inhibition zone diameter (IZD) was measured with a micrometer. The mass percentages of the antibacterial solution added in Groups A to G were as follows: A: 0.20% LAE-no xanthan gum; B: 0.20% LAE; C: 0.08% HPβCD/LAE clathrate-0.02% LAE; D: 0.16% HPβCD/LAE clathrate-0.04% LAE; E: 0.40% HPβCD/LAE clathrate-0.10% LAE; F: 0.60% HPβCD/LAE clathrate-0.15% LAE; and G: 0.80% HPβCD/LAE clathrate-0.20% LAE. The […] was the raw material in Example 1.
# [4] = Low-temperature storage stability at 4° C. (appearance); format: physicochemical
# Protocol: as §1
smiles,measurement,setting,value
"CCCCCCCCCCCC(=O)N[C@@H](CCCN=C(N)N)C(=O)OCC.Cl [LAE, ethyl lauroyl arginate hydrochloride]",chemical stability,[1],desirable chemical stability at a pH value of 3 to 7
same,"pH stability (turbidity, particle size)",[2],obviously aggregated outside the pH value of 3 to 7
same,solubility,[3],less than 2%
same,inhibition zone,Staphylococcus aureus,significantly reduced the inhibition zone of LAE
same,low-temperature storage appearance,"[4]; prolonged storage at low temperature (4° C., up to 35 d)",eventually fully precipitated
same,low-temperature storage appearance,"[4]; storage at low temperature (4° C.) for 24 h, pH 1 to 11","except for the solution of pH=7, all other LAE solutions had obvious crystallization"
